US9458172B2, “Pyridinyl and pyrimidinyl sulfoxide and sulfone derivatives” (priority 2012, dated 2016)
Like-named read-outs stand apart in the source and are kept apart here.

Key:
[1] = tested on: A2780 cells; assay: In-Vitro Cell Proliferation Assay (SRB); settings: Homo sapiens, A2780, 72 h
[2] = target: NAMPT (Homo sapiens (Human), UniProt P43490); assay: Biochemical Inhibition Assay (NAMPT enzymatic reaction, NMN quantified by mass spectrometry); settings: 33 nM recombinant His-tagged NAMPT, 1 μM NAM, 30 min at rt
Summary of the method: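 His-tagged human NAMPT from E. coli preincubated 15 min at rt with compound in 50 mM Hepes pH 7.5, 50 mM NaCl, 5 mM MgCl2, 1 mM THP, then reacted 30 min at rt with 1 μM NAM, […] PRPP, 2.5 mM ATP. NMN quantified by RapidFire mass spectrometry, normalized to L-Cystathionine, background subtracted.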

[3] = read-out: Cell Proliferation (IC50)
[4] = read-out: Cell Proliferation (IC50), A2780 cells, 72 h, sulforhodamine B

NAMPT, sequence (P43490 whole entry): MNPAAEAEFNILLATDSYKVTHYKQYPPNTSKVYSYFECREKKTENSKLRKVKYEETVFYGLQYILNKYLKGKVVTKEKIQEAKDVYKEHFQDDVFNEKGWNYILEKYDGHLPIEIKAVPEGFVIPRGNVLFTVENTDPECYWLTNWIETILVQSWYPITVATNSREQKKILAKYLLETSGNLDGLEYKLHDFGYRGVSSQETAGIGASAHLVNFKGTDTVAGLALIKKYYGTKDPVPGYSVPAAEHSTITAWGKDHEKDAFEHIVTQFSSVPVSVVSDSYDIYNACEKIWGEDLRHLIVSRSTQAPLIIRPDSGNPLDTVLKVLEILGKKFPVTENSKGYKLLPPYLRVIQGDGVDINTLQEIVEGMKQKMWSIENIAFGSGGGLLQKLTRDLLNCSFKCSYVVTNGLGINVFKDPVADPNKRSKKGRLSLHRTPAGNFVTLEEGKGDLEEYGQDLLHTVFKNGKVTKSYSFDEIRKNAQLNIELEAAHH

| Compound | IC50 [1, 3] [nM] | IC50 [2] [nM] | IC50 [1, 4] [nM] |
| --- | --- | --- | --- |
| CN(C)c1ncc(S(=O)(=O)c2ccc(CNC(=O)c3cc4ccncc4s3)nc2)s1 [Example 75, Thieno[2,3-c]pyridine-2-carboxylic acid [5-(2-dimethylamino-thiazole-5-sulfonyl)-pyridin-2-ylmethyl]-amide] | 0.8 | 2.2 |  |
| CCCn1cc(S(=O)(=O)c2ccc(CNC(=O)c3cc4ccncc4s3)nc2)cn1 [Example 76, Thieno[2,3-c]pyridine-2-carboxylic acid [5-(1-propyl-1H-pyrazole-4-sulfonyl)-pyridin-2-ylmethyl]-amide] | 9 | 3.1 |  |
| O=C(NCc1ncc(S(=O)(=O)c2cccc(C(F)(F)F)c2)cn1)c1ccc2nccn2c1 [Example 77, Imidazo[1,2-a]pyridine-6-carboxylic acid [5-(3-trifluoromethyl-benzenesulfonyl)-pyrimidin-2-ylmethyl]-amide] | 16.5 | 17.6 |  |
| O=C(NCc1ccc(S(=O)(=O)c2ccc(C(F)(F)F)nc2)cn1)c1cc2ccncc2s1 [Example 78, Thieno[2,3-c]pyridine-2-carboxylic acid [5-(6-trifluoromethyl-pyridine-3-sulfonyl)-pyridin-2-ylmethyl]-amide] | 551 | 59.4 |  |
| O=C(NCc1ccc(S(=O)(=O)c2ccc(C(F)(F)F)nc2)cn1)c1cc2ccncc2o1 [Example 79, Furo[2,3-c]pyridine-2-carboxylic acid [5-(6-trifluoromethyl-pyridine-3-sulfonyl)-pyridin-2-ylmethyl]-amide] | 124 | 20.5 |  |
| CC(C)n1cc(S(=O)(=O)c2ccc(CNC(=O)N3Cc4ccncc4C3)nc2)cn1 [Example 80, 1,3-Dihydro-pyrrolo[3,4-c]pyridine-2-carboxylic acid [5-(1-isopropyl-1H-pyrazole-4-sulfonyl)-pyridin-2-ylmethyl]-amide] | 83.2 | 22.7 |  |
| O=C(NCc1ncc(S(=O)(=O)c2cccc(C(F)(F)F)c2)cn1)c1cc2ccncc2o1 [Example 81, Furo[2,3-c]pyridine-2-carboxylic acid [5-(3-trifluoromethyl-benzenesulfonyl)-pyrimidin-2-ylmethyl]-amide] | 18.5 | 12.3 |  |
| O=C(NCc1ccc(S(=O)(=O)c2ccc(C(F)(F)F)nc2)cn1)c1ccc2nccn2c1 [Example 82, Imidazo[1,2-a]pyridine-6-carboxylic acid [5-(6-trifluoromethyl-pyridine-3-sulfonyl)-pyridin-2-ylmethyl]-amide] | 330 | 72.3 |  |
| CN(C)c1ccc(S(=O)(=O)c2ccc(CNC(=O)c3ccc4nccn4c3)nc2)cn1 [Example 83, Imidazo[1,2-a]pyridine-6-carboxylic acid [5-(6-dimethylamino-pyridine-3-sulfonyl)-pyridin-2-ylmethyl]-amide] | 7.3 | 9.1 |  |
| CN(C)c1ccc(S(=O)(=O)c2ccc(CNC(=O)c3cnc4[nH]ncc4c3)nc2)cn1 [Example 84, 1H-Pyrazolo[3,4-b]pyridine-5-carboxylic acid [5-(6-dimethylamino-pyridine-3-sulfonyl)-pyridin-2-ylmethyl]-amide] | 20.4 | 27.8 |  |
| O=C(NCc1ccc(S(=O)(=O)c2cc(F)cc(N3CCOCC3)c2)cn1)c1cnc2[nH]ncc2c1 [Example 85, 1H-Pyrazolo[3,4-b]pyridine-5-carboxylic acid [5-(3-fluoro-5-morpholin-4-yl-benzenesulfonyl)-pyridin-2-ylmethyl]-amide] | 9.7 | 32.9 |  |
| Nc1ncc2c(n1)CN(C(=O)NCc1ccc(S(=O)(=O)c3cc(F)cc(F)c3)cn1)C2 [Example 86, 2-Amino-5,7-dihydro-pyrrolo[3,4-d]pyrimidine-6-carboxylic acid [5-(3,5-difluoro-benzenesulfonyl)-pyridin-2-ylmethyl]-amide] |  | 354 | 2000 |
| O=C(NCc1ccc(S(=O)(=O)N2CCC(N3CCCC3)CC2)cn1)c1cc2ccncc2o1 [Example 91, Furo[2,3-c]pyridine-2-carboxylic acid [5-(4-pyrrolidin-1-yl-piperidine-1-sulfonyl)-pyridin-2-ylmethyl]-amide] | 45.7 | 47.4 |  |
| Cc1ccc(S(=O)(=O)c2ccc(CNC(=O)c3ccc4nccn4c3)nc2)cn1 [Example 92, Imidazo[1,2-a]pyridine-6-carboxylic acid [5-(6-methyl-pyridine-3-sulfonyl)-pyridin-2-ylmethyl]-amide] |  | 33.9 | 56.8 |
| CN(C)c1ncc(S(=O)(=O)c2ccc(CNC(=O)c3cc4ccncc4o3)nc2)s1 [Example 93, Furo[2,3-c]pyridine-2-carboxylic acid [5-(2-dimethylamino-thiazole-5-sulfonyl)-pyridin-2-ylmethyl]-amide] | 1.16 | 4.9 |  |
| Cc1ccc(S(=O)(=O)c2ccc(CNC(=O)c3cc4ccncc4s3)nc2)cn1 [Example 95, Thieno[2,3-c]pyridine-2-carboxylic acid [5-(6-methyl-pyridine-3-sulfonyl)-pyridin-2-ylmethyl]-amide] | 234 | 37.7 |  |
| CCS(=O)(=O)c1cccc(S(=O)(=O)c2ccc(CNC(=O)c3ccc4nccn4c3)nc2)c1 [Example 96, Imidazo[1,2-a]pyridine-6-carboxylic acid [5-(3-ethanesulfonyl-benzenesulfonyl)-pyridin-2-ylmethyl]-amide] | 38.1 | 19.3 |  |
| CN(C)c1ncc(S(=O)(=O)c2ccc(CNC(=O)N3Cc4ccncc4C3)nc2)s1 [Example 98, 1,3-Dihydro-pyrrolo[3,4-c]pyridine-2-carboxylic acid [5-(2-dimethylamino-thiazole-5-sulfonyl)-pyridin-2-ylmethyl)-amide] | 4.97 | 6.6 |  |
| Cn1cc(S(=O)(=O)c2ccc(CNC(=O)N3Cc4ccncc4C3)nc2)cn1 [Example 99, 1,3-Dihydro-pyrrolo[3,4-c]pyridine-2-carboxylic acid [5-(1-methyl-1H-pyrazole-4-sulfonyl)-pyridin-2-ylmethyl]-amide] | 1200 | 54.7 |  |
| O=C(NCc1ccc(S(=O)(=O)c2cccc(F)c2)cn1)N1Cc2ccncc2C1 [Example 100, 1,3-Dihydro-pyrrolo[3,4-c]pyridine-2-carboxylic acid [5-(3-fluoro-benzenesulfonyl)-pyridin-2-ylmethyl]-amide] | 76.6 | 11.1 |  |
| O=C(NCc1ccc(S(=O)(=O)C2CCN(C3COC3)CC2)cn1)N1Cc2ccncc2C1 [Example 104, 1,3-Dihydro-pyrrolo[3,4-c]pyridine-2-carboxylic acid [5-(1-oxetan-3-yl-piperidine-4-sulfonyl)-pyridin-2-ylmethyl]-amide] | 116 | 67.9 |  |
| CCS(=O)(=O)c1cccc(S(=O)(=O)c2ccc(CNC(=O)c3cnc4[nH]ncc4c3)nc2)c1 [Example 106, 1H-Pyrazolo[3,4-b]pyridine-5-carboxylic acid [5-(3-ethanesulfonyl-benzenesulfonyl)-pyridin-2-ylmethyl]-amide] | 328 | 135 |  |
| O=C(NCc1ccc(S(=O)(=O)c2ccc(C(F)(F)F)nc2)cn1)c1cnc2[nH]ncc2c1 [Example 107, 1H-Pyrazolo[3,4-b]pyridine-5-carboxylic acid [5-(6-trifluoromethyl-pyridine-3-sulfonyl)-pyridin-2-ylmethyl]-amide] |  | 731 | 1300 |
| CCCC(=O)N1CCC(S(=O)(=O)c2ccc(CNC(=O)N3Cc4ccncc4C3)nc2)CC1 [Example 108, 1,3-Dihydro-pyrrolo[3,4-c]pyridine-2-carboxylic acid [5-(1-butyryl-piperidine-4-sulfonyl)-pyridin-2-ylmethyl]-amide] | 358 | 27.7 |  |
| CCS(=O)(=O)c1cccc(S(=O)(=O)c2ccc(CNC(=O)c3cc4ccncc4o3)nc2)c1 [Example 109, N-[[5-(3-ethylsulfonylphenyl)sulfonyl-2-pyridyl]methyl]furo[2,3-c]pyridine-2-carboxamide] | 15.1 | 6.8 |  |
| Nc1ccc(S(=O)(=O)c2ccc(CNC(=O)c3cc4ccncc4o3)nc2)cn1 [Example 110, N-[[5-[(6-amino-3-pyridyl)sulfonyl]-2-pyridyl]methyl]furo[2,3-c]pyridine-2-carboxamide] | 25.9 | 13.3 |  |
| O=C(NCc1ccc(S(=O)(=O)C2CCN(CC(F)(F)F)CC2)cn1)c1cnc2nccn2c1 [Example 111, N-[[5-[[1-(2,2,2-trifluoroethyl)-4-piperidyl]sulfonyl]-2-pyridyl]methyl]imidazo[1,2-a]pyrimidine-6-carboxamide] |  | 3 | 101 |
| COc1cc(OC)cc(S(=O)(=O)c2ccc(CNC(=O)c3cc4ccncc4o3)nc2)c1 [Example 112, N-[[5-(3,5-dimethoxyphenyl)sulfonyl-2-pyridyl]methyl]furo[2,3-c]pyridine-2-carboxamide] | 1.06 | 0.99 |  |
| CCS(=O)(=O)c1cccc(S(=O)(=O)c2ccc(CNC(=O)N3Cc4ccncc4C3)nc2)c1 [Example 114, N-[[5-(3-ethylsulfonylphenyl)sulfonyl-2-pyridyl]methyl]-1,3-dihydropyrrolo(3,4-c]pyridine-2-carboxamide] | 134 | 2.12 |  |
| O=C(NCc1ccc([S+]([O-])c2cc(F)cc(F)c2)cn1)N1Cc2ccncc2C1 (stereo not drawn) [Example 116, N-[[5-(3,5-difluorophenyl)sulfinyl-2-pyridyl]methyl]-1,3-dihydropyrrolo[3,4-c]pyridine-2-carboxamide] |  | 15.5 | 8.92 |
